Source: ChEMBL document CHEMBL5338815 (J Med Chem, 2023)
Active and inactive are the calls of the source. The rule behind the calls is not given here.

Legend:
[1] = target: T1, Histone-lysine N-methyltransferase EHMT2 (Homo sapiens, UniProt Q96KQ7); experiment: Inhibition of G9a (unknown origin) by AlphaLISA assay
T1 sequence (Q96KQ7 whole entry): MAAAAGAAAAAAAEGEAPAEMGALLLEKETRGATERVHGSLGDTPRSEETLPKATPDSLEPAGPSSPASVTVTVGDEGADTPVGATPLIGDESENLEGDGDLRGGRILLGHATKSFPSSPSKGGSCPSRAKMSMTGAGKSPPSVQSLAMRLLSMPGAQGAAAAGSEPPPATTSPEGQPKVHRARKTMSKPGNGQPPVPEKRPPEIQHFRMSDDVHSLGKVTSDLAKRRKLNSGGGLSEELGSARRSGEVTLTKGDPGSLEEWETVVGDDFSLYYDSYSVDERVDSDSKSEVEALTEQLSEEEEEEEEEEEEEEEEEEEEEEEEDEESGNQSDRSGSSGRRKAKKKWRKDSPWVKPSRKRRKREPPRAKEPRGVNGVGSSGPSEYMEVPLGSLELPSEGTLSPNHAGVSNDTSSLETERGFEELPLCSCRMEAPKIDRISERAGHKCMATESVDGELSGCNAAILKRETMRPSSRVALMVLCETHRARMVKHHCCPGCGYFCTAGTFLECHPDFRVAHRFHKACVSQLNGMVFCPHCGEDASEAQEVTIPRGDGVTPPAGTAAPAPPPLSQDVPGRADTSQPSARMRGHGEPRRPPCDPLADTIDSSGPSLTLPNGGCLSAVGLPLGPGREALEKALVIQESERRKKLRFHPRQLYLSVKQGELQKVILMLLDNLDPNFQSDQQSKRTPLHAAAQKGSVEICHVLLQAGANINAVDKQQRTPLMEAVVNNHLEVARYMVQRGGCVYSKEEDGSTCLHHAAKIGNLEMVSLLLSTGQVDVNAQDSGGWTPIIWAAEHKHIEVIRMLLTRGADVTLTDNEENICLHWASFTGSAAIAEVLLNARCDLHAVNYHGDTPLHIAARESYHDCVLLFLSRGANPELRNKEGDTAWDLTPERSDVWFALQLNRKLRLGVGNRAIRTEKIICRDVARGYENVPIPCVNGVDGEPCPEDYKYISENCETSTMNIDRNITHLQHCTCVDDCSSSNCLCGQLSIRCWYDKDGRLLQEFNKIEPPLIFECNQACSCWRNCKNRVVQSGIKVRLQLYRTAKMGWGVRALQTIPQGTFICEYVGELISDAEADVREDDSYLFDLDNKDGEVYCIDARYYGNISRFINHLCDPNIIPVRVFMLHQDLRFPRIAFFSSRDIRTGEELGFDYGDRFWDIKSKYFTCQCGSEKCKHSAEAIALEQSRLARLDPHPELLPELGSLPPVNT

PANC-1 [2] = experiment: Antiproliferative activity against human PANC-1 cells assessed as cell viability measured after 24 hrs by CCK-8 assay; assay type: functional, cell-based; conditions: PANC-1, 24 h
[3] = target: T2, Histone-lysine N-methyltransferase EHMT1 (Homo sapiens, UniProt Q9H9B1); experiment: Inhibition of GLP (unknown origin) by AlphaLISA assay
T2 sequence (Q9H9B1 whole entry): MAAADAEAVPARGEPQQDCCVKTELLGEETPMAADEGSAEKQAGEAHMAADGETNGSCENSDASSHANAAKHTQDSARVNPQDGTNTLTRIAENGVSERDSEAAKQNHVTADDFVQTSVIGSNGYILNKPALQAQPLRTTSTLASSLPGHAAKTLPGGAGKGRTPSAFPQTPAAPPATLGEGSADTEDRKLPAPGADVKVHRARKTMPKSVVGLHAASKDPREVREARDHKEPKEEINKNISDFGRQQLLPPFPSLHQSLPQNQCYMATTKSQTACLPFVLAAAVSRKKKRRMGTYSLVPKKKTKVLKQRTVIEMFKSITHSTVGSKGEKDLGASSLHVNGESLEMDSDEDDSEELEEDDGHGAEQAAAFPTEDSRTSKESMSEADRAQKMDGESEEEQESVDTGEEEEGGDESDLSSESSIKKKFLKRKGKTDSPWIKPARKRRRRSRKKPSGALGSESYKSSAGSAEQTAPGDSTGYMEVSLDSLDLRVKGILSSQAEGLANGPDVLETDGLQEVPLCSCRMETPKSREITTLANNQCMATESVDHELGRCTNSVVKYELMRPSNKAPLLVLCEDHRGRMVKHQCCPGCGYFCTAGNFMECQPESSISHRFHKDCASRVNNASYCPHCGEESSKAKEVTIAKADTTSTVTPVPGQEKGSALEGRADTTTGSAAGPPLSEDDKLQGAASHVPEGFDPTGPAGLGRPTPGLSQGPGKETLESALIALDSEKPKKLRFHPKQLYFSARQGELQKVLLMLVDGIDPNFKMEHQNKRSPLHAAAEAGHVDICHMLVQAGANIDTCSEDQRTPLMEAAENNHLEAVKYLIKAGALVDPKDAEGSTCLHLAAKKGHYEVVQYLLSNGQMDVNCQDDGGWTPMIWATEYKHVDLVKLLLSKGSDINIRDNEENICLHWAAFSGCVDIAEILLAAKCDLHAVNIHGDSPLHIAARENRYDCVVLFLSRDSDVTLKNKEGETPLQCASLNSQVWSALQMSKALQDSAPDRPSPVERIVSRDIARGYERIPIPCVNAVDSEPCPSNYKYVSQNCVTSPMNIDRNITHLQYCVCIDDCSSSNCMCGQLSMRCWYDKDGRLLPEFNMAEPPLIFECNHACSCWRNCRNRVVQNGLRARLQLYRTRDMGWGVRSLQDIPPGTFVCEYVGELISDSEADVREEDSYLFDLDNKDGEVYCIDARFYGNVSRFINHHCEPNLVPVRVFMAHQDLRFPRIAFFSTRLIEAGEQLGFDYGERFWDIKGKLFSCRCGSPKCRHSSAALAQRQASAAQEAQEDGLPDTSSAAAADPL

[4] = target: Histone-lysine N-methyltransferase 2B (Homo sapiens, UniProt Q9UMN6); experiment: Inhibition of MLL4 (unknown origin)
Chain of Histone-lysine N-methyltransferase 2B (Q9UMN6 whole entry): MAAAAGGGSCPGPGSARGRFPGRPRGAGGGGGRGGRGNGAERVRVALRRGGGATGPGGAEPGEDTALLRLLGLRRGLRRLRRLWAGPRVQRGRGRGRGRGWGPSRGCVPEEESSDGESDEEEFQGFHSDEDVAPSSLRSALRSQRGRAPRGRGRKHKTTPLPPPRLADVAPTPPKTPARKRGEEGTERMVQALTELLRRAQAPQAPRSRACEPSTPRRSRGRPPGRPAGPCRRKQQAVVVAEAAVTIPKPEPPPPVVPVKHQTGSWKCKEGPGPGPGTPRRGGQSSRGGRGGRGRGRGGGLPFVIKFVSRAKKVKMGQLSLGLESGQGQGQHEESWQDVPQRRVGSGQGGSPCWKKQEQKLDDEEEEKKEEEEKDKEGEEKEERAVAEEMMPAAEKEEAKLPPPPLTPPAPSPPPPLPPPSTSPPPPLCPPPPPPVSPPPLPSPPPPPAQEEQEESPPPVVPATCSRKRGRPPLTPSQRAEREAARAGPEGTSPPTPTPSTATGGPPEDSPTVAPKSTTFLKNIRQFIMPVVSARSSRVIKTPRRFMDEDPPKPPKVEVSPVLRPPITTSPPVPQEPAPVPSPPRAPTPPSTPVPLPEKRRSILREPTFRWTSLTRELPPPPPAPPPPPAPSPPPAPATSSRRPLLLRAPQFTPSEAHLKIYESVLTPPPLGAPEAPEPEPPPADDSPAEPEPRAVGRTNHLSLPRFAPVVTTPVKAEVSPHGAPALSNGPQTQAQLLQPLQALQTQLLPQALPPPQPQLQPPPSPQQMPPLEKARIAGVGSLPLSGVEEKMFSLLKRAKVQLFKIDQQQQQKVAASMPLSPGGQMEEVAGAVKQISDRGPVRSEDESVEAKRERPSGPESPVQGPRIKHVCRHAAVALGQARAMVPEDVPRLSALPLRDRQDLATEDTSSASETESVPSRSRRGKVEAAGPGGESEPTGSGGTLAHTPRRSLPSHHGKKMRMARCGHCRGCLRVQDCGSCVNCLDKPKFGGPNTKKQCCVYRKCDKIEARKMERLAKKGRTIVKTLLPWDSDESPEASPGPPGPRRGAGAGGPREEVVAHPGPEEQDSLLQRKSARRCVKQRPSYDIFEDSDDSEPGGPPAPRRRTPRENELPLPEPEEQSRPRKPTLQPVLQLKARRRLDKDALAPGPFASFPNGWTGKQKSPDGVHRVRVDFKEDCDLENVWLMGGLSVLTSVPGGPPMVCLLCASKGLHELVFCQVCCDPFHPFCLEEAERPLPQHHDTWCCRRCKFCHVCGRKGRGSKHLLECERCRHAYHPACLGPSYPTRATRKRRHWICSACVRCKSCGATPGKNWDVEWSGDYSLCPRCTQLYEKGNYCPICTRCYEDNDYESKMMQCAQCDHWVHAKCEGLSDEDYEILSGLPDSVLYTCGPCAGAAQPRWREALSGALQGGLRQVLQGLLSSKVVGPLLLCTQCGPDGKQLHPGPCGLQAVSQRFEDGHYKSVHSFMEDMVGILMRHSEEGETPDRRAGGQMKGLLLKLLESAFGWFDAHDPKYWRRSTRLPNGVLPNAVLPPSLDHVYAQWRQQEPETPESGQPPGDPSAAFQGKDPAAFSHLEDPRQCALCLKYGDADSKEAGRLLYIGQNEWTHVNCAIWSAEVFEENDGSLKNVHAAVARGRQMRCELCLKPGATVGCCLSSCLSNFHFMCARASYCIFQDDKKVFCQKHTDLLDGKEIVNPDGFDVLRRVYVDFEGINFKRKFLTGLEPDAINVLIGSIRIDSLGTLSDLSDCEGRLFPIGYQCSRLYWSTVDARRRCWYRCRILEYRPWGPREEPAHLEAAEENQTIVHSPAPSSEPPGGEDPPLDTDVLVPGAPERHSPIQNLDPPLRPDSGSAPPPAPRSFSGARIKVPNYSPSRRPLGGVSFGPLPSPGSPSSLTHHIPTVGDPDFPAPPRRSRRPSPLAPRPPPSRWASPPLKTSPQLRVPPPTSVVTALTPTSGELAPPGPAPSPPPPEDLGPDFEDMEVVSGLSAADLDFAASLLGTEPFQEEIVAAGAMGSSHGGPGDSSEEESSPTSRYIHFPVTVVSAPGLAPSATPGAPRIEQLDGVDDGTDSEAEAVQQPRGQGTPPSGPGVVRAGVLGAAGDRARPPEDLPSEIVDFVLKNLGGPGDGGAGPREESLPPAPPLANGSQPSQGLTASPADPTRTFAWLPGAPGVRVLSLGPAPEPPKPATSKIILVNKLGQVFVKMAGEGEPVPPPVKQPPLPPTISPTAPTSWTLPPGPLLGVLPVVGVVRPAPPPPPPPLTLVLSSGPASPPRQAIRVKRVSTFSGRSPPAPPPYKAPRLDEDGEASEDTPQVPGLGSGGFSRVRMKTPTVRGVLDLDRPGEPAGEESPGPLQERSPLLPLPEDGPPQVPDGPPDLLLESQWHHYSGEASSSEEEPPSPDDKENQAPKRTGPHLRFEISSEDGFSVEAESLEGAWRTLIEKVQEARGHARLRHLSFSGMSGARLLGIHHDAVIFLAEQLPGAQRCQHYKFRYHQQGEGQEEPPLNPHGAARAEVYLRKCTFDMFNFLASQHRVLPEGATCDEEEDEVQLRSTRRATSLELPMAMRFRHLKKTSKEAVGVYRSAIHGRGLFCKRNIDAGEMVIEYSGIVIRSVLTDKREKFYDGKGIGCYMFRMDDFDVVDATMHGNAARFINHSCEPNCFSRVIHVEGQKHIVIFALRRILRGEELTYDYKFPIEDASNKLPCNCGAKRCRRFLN

[5] = target: DNA (cytosine-5)-methyltransferase 1 (Homo sapiens, UniProt P26358); experiment: Inhibition of DNMT1 (unknown origin)
Chain of DNA (cytosine-5)-methyltransferase 1 (P26358 whole entry): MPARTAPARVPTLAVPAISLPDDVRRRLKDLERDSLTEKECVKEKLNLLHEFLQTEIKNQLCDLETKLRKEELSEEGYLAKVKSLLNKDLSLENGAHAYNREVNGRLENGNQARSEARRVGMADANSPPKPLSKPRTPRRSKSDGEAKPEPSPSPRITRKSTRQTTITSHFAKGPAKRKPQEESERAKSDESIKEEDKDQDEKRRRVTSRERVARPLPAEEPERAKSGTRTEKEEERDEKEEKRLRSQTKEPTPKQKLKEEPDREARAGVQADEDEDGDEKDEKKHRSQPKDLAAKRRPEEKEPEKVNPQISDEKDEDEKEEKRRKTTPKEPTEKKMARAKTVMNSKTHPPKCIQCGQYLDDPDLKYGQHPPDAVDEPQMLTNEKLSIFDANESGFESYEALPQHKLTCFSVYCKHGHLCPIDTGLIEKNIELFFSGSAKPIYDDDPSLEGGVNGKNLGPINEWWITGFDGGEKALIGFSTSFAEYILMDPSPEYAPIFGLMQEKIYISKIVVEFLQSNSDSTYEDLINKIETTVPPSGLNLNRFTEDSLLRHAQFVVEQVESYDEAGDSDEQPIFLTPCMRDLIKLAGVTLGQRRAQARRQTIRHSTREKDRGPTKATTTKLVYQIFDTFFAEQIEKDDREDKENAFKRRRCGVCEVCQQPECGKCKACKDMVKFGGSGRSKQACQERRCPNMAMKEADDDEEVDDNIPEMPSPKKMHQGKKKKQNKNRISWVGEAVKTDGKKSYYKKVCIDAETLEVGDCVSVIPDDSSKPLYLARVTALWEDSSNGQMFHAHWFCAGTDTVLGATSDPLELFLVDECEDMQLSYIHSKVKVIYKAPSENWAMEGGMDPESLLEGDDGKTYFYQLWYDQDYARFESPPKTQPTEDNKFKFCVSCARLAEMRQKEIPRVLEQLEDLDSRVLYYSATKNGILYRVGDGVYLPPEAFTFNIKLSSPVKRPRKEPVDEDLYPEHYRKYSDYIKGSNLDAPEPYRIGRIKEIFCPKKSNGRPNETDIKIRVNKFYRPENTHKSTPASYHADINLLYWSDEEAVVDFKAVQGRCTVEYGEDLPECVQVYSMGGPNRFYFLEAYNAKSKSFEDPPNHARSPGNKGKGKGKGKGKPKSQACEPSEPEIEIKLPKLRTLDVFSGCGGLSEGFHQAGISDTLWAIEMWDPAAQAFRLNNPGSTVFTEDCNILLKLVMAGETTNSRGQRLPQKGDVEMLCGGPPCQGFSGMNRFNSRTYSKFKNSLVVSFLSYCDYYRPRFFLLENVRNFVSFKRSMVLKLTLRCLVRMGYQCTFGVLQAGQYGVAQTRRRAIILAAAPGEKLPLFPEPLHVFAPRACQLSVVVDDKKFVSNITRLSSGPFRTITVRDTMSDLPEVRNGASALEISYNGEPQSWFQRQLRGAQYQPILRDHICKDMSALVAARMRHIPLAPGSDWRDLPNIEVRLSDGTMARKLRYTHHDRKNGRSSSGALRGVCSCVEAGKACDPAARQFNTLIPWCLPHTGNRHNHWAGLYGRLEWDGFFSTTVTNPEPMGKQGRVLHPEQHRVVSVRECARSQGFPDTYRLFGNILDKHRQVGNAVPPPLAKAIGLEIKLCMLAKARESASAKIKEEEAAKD

[6] = target: T3, Histone-lysine N-methyltransferase EHMT2 (Homo sapiens) (UniProt Q96KQ7); experiment: Covalent inhibition of recombinant G9a (unknown origin) assessed as adduct formation intensity by measuring mass after 12 hrs by mass spectrometric analysis
T3 sequence (whole entry): T1 sequence (Q96KQ7 whole entry)

MDA-MB-231 [7] = experiment: Reduction in H3K9me2 level in human MDA-MB-231 cells at 10 uM incubated for 48 hrs followed replaced with fresh medium measured after 48 hrs by Western blot analysis; assay type: functional, cell-based
MDA-MB-231 [8] = experiment: Inhibition of colony formation in human MDA-MB-231 cells at […] incubated for 14 days drug medium changed for every 2 days by crystal violet staining based analysis; assay type: cell-based; conditions: dose 2.5 µM, time 14.0 day
PANC-1 [9] = experiment: In vivo antitumor activity against human PANC-1 cells xenografted in Balb/c mouse model assessed as reduction in H3K9me2 level in tumor at 2 mg/kg, ip treated for 22 days relative to control; assay type: functional, organism-based; conditions: time 22.0 day
[10] = MRT in ICR mouse at 2 mg/kg, ip measured upto 24 hrs by LC-MS/MS analysis; assay type: ADME, organism-based; conditions: in vivo

IC50 [1]: 8.5 nM
IC50 (PANC-1 [2]): 2680 nM
IC50 [3]: 5 nM
IC50 [4]: > 20000 nM
IC50 [5]: > 20000 nM
Activity [6]: 60700 Da
MRT [10]: 36.6 min
SMILES: C=CC(=O)N(C)c1nc(NC2CCN(C)CC2)c2cc(OC)c(OCCCN3CCCC3)cc2n1
inhibition (MDA-MB-231 [7]): inactive
inhibition (MDA-MB-231 [8]): Active
inhibition (PANC-1 [9]): Active
